In patent US11358931B2, “Selective androgen receptor modulators (SARMs) and uses thereof” (priority 2007, dated 2022):

Tests used:
cynomolgus monkeys = experiment: 14-day oral toxicity study in cynomolgus monkeys; type: in vivo, cynomolgus monkey
Procedure: (§1) A study was performed to determine any potential toxicity and the toxicokinetic profile of Compound 102 when administered orally (via nasal gavage) to cynomolgus monkeys for at least 14 days. The cynomolgus monkey was chosen for this study as it is a non-rodent species that is commonly used for non-clinical toxicity evaluations. Use of the monkey model maximized the likelihood of identifying toxicological responses that may occur in humans. Ten experimentally naïve cynomolgus monkeys (5 male and 5 female) from about 2.5 to 3 years of age and weighing between about 2.3 to about 2.8 kg at Day −1 of the study were assigned to dose groups as shown in Table 6 below.
(§2) All animals were dosed via nasal gavage once daily for 14 consecutive days. The first day of dosing was designated Day 1 for all animals. The animals were evaluated for clinical signs (evaluation of mortality and morbidity, twice daily), cage side observations and food consumption (once daily), body weight (Days 1, 8 and 14), physical examination (Day −5 and post dosing following the 13/24 hour toxicokinetic collection on Day 14), ophthalmic examination (prestudy and owing the Day 13/24 hour toxicokinetic collection on Day 14), and clinical pathology parameters (serum chemistry, hematology and coagulation on Days −3 and 14), urine samples were collected during necropsy (Day 15) for urinalysis. Blood samples were collected for toxicokinetic analysis at 1, 2, 4, 8, 12 and 24 hours post dose on Days 1 and 13.
(§3) All ten animals were euthanized one day after the last dose. At termination, a full necropsy was conducted on all animals, and tissues were collected, preserved, processed and examined microscopically by an American College of Veterinary Pathologists (ACVP) certified pathologist.
(§4) Vehicle was composed of PEG 400/Tween® 80/PVP-K30 (90/5/5, w/w/w). Appropriate amounts of Compound 102 were added to vehicle to prepare the suspension of test compound administered to the animals
(§5) Blood samples for evaluation of serum chemistry, hematology and coagulation parameters were collected from all animals on Days −3 and 14. Urine samples were obtained by bladder puncture during necropsy. The animals were fasted for at east 8 hours prior to blood collections for serum chemistry. Serum chemistry parameters included alanine aminotransferase (ALT), total protein, aspartate aminotransferase (AST), alkaline phosphatase (ALP), gamma-glutamyltransferase (GGT), albumin, globulin, albumin/globulin ratio, lactate dehydrogenase (LD), glucose, total bilirubin, cholesterol, urea nitrogen (BUN), creatinine, triglycerides, sodium, calcium, potassium, phosphorus, chloride and carbon dioxide. Hematology parameters included red blood cell count, hemoglobin concentration, hematocrit, mean corpuscular volume (MCV), mean corpuscular hemoglobin concentration (MCHC), mean corpuscular hemoglobin (MCH), red cell distribution width, reticulocyte count, platelet count, mean platelet volume (MPV) and white blood cell count. Coagulation parameters included prothrombin time (PT) and activated partial thromboplastin time. Urinalysis parameters included color/character, specific gravity, pH, protein, glucose, ketones, bilirubin, occult blood and microscopics.

[1] = 14-day oral toxicity study in cynomolgus monkeys; type: in vivo, cynomolgus monkey; conditions: cynomolgus monkey, in vivo, oral, cynomolgus monkeys, nasal gavage once daily 14 days
Procedure: as §1, §2, §3, §4, §5

[2] = Metabolic stability in liver microsomes; type: in vitro ADME; conditions: rat liver microsomes, 37° C., pH 7.4, average of 2 experiments; read-out: half-life for degradation
Procedure: Liver microsomes are subcellular fractions that contain drug-metabolizing enzymes, such as cytochrome P450, flavin monooxygenases and UDP glucuronyl transferases. […] Rat liver microsomes are a commonly used animal model for determination of drug metabolism (e.g., see Shayeganpour et al., Drug Metab Dispos 34 (1): 43-50 (2006)).
The metabolism of Compound 102 was evaluated in rat liver microsomes. The metabolism was initiated by adding 25 μL of cofactor (100 mM of glucose 6-phosphate, 20 mM of NADP, […], and 63 mM of UDPGA) to wells containing 50 μL of 5 mg/mL of rat liver microsomes and 425 μL of 0.59 mM of Compound 102 made in 100 mM phosphate buffer (pH 7.4) at 37° C. At 0, 5, 10 and 20 minutes, a 60 μL aliquot of the sample was withdrawn. The unmetabolized test substance remaining in the sample was determined using HPLC and mass spectrometry and the half-life for degradation of the compound was calculated in minutes using curve fitting.

In the case of N#Cc1ccc(N2CCC[C@@H]2[C@@H](O)C(F)(F)F)cc1C(F)(F)F [Compound 102, R,R-4-(2-(1-Hydroxyl-2,2,2-trifluoroethyl)-pyrrolidinyl)-2-trifluoromethyl-benzonitrile], the “platelet counts lower on Day 14 relative to Day −3” value (cynomolgus monkeys; 5, 50 and 150 mg/kg males and females and 450 mg/kg female) is reported as 14% to 38%, the serum cholesterol concentration (cynomolgus monkeys; Day 14, all dosed animals) is reported as “decreased” and the “prothrombin time longer than Day −3” value (cynomolgus monkeys; Day 14, all dosed animals except the 5 mg/kg female) is reported as 1.8 to 3.5 s. For the same compound, the “microscopic findings (histopathology)” value (cynomolgus monkeys; all dose levels) was “no direct Compound 102-related microscopic findings”, the ophthalmic examinations (cynomolgus monkeys; all dose levels) was “no Compound 102-related findings” and the urinalysis parameters (cynomolgus monkeys; all dose levels) was “no Compound 102-related effects”. For the same compound, the body weight (cynomolgus monkeys; all dosed animals relative to controls) was “dose-independent increase in body weight”, the gross necropsy findings (cynomolgus monkeys; both sexes at 150 and 450 mg/kg) was “decreased thymus size and brown discoloration of the adrenals” and the NOEL (cynomolgus monkeys; cynomolgus monkeys, 14 days) was “not achieved”. The “mortality, clinical signs, food consumption, histologic effects” value (cynomolgus monkeys; daily administration for 14 days, all dose levels) was “did not result in mortality, adverse clinical signs or changes in food consumption or histologic effects”, the “serum ALT and AST activity” value (cynomolgus monkeys; female animal dosed with 450 mg/kg, after 14 days) was “elevated” and the thymus histology (cynomolgus monkeys; males at 150 mg/kg and above, females at 50 mg/kg and above, considered secondary to stress) was “Minimal to mild lymphoid cortical depletion of the thymus”. For the same compound, the NOAEL at 14 days ([1]; female, females) was 150 mg/kg, the NOAEL at 14 days ([1]; male, males) was 450 mg/kg and the half-life at 0.5 mM [2] was 44.5 min.
